# US12697366B2, “Thermogenic compositions and methods” (Ohio State Innovation Foundation, priority 2016, dated 2026)
# Test system: PPARα-LBD
# Assay: PPARα-LBD luciferase reporter in transiently transfected HEK293 cells
# Type: cell-based, human
# Details: EREG, 12 hrs
# Description: FIGS. 11A to 11I show adipokine Ereg is bilaterally associated with obesity and thermogenesis and activates PPARα. […] Microarray gene analysis was performed using Affymetrix microarray. FIG. 11B: Ereg expression was measured in non-differentiated and differentiated (day 5) 3T3-L1 adipocytes (Mann-Whitney test) using a customized NanoString mouse panel. FIG. 11C: Ereg expression was measured in differentiated (day 5) 3T3-L1 and Aldh1a1^−/− adipocytes by Taqman and normalized to TATA box protein (TBP). FIG. 11D: Plasma EREG concentrations were measured in mice from Study 1 by western blot. […] FIG. 11E: Plasma EREG concentrations were measured and quantified in iAb of WT and ob/ob mice from Study 2 by western blot (n=5 per each group). […] FIG. 11F: EREG was measured in iAb, subcutaneous and brown fat by western blot. Fat pads were dissected from WT mice on regular chow (Study 1). FIG. 11G: Ucp2 and Ucp1 expression was measured in differentiated 3T3-L1 adipocytes (day 5) stimulated with vehicle (PBS) or recombinant EREG (50 ng/mL) added in the differentiation medium I and II. Expression level were measured by Taqman and normalized by TBP. FIGS. 11H and 11I: HEK293 cells were transiently transfected with PPARα-LBD, UASTK-luciferase, and renilla. […] Data represents % PPARα-LBD activation. Asterisks indicate significant difference (p<0.05) compared to vehicle control, #, indicates statistical difference between PPARα-LBD activation by EREG alone and in the presence of inhibitors. Data represent mean±SD. The Mann-Whitney test was used throughout these studies for group comparison.
# HEK293 cells ([…] cells, 24-well plates) were used for transient transfection experiments. Cells were transfected with human PPARα-LBD construct, yeast UASTK luciferase reporter (SwitchGear Genomics, Menlo Park, CA), using Fugene (Roche Applied Science, Indianapolis, IN). Transfections were carried out in OptiMeM (Invitrogen, Carlsbad, CA) medium for 12 hours as described previously. Luciferase was measured using Promega assay according to manufacturer's instructions
substance,measurement,value
"EREG: Epiregulin, member of the epidermal growth factor family; recombinant mouse or human protein",induction of PPARα (PPARα-LBD activation),dose dependent induction
